The record followed here is patent US20230167073A1 (Teijin Pharma Limited, priority 2020, published 2023).

Some results are limits rather than exact numbers.

For this test, the target named is T1, Human TRPC6 (Homo sapiens, UniProt Q9Y210).
T1 construct: expressed in transfected cells
T1 sequence (Q9Y210 1-931): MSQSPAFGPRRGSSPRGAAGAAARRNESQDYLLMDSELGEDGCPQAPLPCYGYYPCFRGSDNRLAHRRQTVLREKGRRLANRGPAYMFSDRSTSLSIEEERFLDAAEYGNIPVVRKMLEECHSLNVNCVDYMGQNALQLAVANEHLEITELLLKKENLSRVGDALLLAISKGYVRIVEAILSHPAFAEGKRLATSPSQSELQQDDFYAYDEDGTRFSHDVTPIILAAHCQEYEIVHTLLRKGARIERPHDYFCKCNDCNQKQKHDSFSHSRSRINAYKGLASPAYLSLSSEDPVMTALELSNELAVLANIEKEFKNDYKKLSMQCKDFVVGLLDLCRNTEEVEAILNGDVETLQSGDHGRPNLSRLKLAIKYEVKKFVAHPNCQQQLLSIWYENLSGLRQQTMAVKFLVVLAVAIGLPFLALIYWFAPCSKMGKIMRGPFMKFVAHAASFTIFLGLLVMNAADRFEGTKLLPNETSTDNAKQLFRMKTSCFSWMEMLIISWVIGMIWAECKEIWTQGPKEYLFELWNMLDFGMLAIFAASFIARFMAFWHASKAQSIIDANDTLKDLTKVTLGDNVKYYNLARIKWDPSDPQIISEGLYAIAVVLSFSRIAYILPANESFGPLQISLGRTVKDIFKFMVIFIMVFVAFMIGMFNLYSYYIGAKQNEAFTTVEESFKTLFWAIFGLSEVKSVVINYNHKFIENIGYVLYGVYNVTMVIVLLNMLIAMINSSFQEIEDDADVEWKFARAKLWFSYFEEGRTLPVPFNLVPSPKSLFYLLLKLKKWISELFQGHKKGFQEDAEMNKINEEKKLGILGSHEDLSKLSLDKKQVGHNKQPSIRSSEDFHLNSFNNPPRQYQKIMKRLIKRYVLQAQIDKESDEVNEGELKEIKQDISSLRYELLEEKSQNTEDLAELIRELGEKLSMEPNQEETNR
Briefly: Evaluation of TRPC6 channel inhibitory activity (2), HEK293 cells with stably introduced human TRPC6, OAG stimulation, FLIPR tetra (Compound Nos. 1293 to 1405). Type of test: cell-based. To be noted: HEK293 cells with stably introduced human TRPC6, OAG 50 μM/0.5% DMSO, read-out: Inhibitory activity (pIC50 class) (converted). In a few lines:
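Calcium-dye-loaded HEK293 cells stably expressing human TRPC6 were pretreated with compound for 25 min, then stimulated with 50 μM OAG (0.5% DMSO) in Ca ringer buffer pH 7.2 with 2 mM CaCl2. Background-subtracted FLIPR calcium peaks were normalized to OAG (100%) and buffer (0%); pIC50 came from four-parameter logistic fit, binned as +/++/+++.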
On to `Cc1cc(Oc2cc(Cl)cnc2-c2ccc([C@H](F)CN)cn2)cc(N2CCOCC2)n1` [compound 1398], for which the IC50 was less than 10 nM.

Consider `Cn1nc(-c2ccccn2)cc1Oc1cc(Cl)cnc1-c1ccc([C@@H](F)CN)cn1` [compound 1353, (2R)-2-[6-[5-chloro-3-(2-methyl-5-pyridin-2-ylpyrazol-3-yl)oxypyridin-2-yl]pyridin-3-yl]-2-fluoroethanamme], for which the IC50 is 10 to 1000 nM.

`Cn1nc(C2CCOCC2)cc1Oc1cc(C#N)ccc1-c1ccc(C(F)(F)CN)cn1` [compound 1400, 4-[5-(2-amino-1,1-difluoroethyl)pyridin-2-yl]-3-[2-methyl-5-(oxan-4-yl)pyrazol-3-yl]oxybenzonitrile]: the IC50 was 10 to 1000 nM.

Consider `Cn1nc(C2CCOCC2)cc1Oc1cc(Cl)ccc1-c1ccc([C@@H](F)CN)cn1` [compound 1387, (2R)-2-[6-[4-chloro-2-[2-methyl-5-(oxan-4-yl)pyrazol-3-yl]oxyphenyl]pyridin-3-yl]-2-fluoroethanamine], for which the IC50 is less than 10 nM.

As to `Cn1nc(C2CC2)cc1Oc1cc(C#N)ccc1-c1ncc([C@H](F)CN)cn1` [compound 1367, 4-[5-[(1S)-2-amino-1-fluoroethyl]pyrimidin-2-yl]-3-(5-cyclopropyl-2-methylpyrazol-3-yl)oxybenzonitrile], the IC50 is less than 10 nM.

As for `Cc1nc(Oc2cc(Cl)ccc2-c2ncc([C@H](F)CN)cn2)cc(N2CCOCC2)n1` [compound 1375, (2S)-2-[2-[4-chloro-2-(2-methyl-6-morpholin-4-ylpyrimidin-4-yl)oxyphenyl]pyrimidin-5-yl]-2-fluoroethanamine], the IC50 was 10 to 1000 nM.

Regarding `Cc1cc(Oc2cc(Cl)cnc2-c2ncc(CCN)cn2)cc(N2CCOCC2)n1` [compound 1385, 2-[2-[5-chloro-3-(2-methyl-6-morpholin-4-ylpyridin-4-yl)oxypyridin-2-yl]pyrimidin-5-yl]ethanamine], the IC50 was 10 to 1000 nM.

`Cn1nc(C2CC2)cc1Oc1cc(F)ccc1-c1ncc(C(F)CN)cn1` (stereo in doubt) [compound 1381, (2S)-2-[2-[2-(5-cyclopropyl-2-methylpyrazol-3-yl)oxy-4-fluorophenyl]pyrimidin-5-yl]-2-fluoroethanamine]: the IC50 was greater than 1000 nM.

`Cn1nc(C2CC2)cc1Oc1cc(F)ccc1-c1ncc([C@@H](F)CN)cn1` [compound 1382, (2R)-2-[2-[2-(5-cyclopropyl-2-methylpyrazol-3-yl)oxy-4-fluorophenyl]pyrimidin-5-yl]-2-fluoroethanamine]: the IC50 was 10 to 1000 nM.

`Cn1nc(-c2ccccn2)cc1Oc1cc(Cl)ccc1-c1ncc([C@H](F)CN)cn1` [compound 1324, (2S)-2-[2-[4-chloro-2-(2-methyl-5-pyridin-2-ylpyrazol-3 yl)oxyphenyl]pyrimidin-5-yl]-2-fluoroethanamine]: the IC50 is less than 10 nM.

`Cn1nc(C2CCOCC2)cc1Oc1cc(Cl)cnc1-c1ccc([C@H](F)CN)cn1` [compound 1373, (2S)-2-[6-[5-chloro-3-[2-methyl-5-(oxan-4-yl)pyrazol-3-yl]oxypyridin-2-yl]pyridin-3-yl]-2-fluoroethanamine]: the IC50 was less than 10 nM.

In the case of `Cn1nc(-c2ccccn2)cc1Oc1cc(Cl)cnc1-c1ccc([C@H](F)CN)cn1` [compound 1354, (2S)-2-[6-[5-chloro-3-(2-methyl-5-pyridin-2-ylpyrazol-3-yl)oxypyridin-2-yl]pyridin-3-yl]-2-fluoroethanamine], the IC50 was less than 10 nM.

Take `Cn1nc(-c2ccccn2)cc1Oc1cc(C#N)ccc1-c1ccc([C@@H](F)CN)cn1` [compound 1301, 4-[5-[(1R)-2-amino-1-fluoroethyl]pyridin-2-yl]-3-(2-methyl-5-pyridin-2-ylpyrazol-3-yl)oxybenzonitrile]: the IC50 is less than 10 nM.

`Cn1nc(C2CC2)cc1Oc1cc(C#N)ccc1-c1ncc([C@@H](F)CN)cn1` [compound 1366, 4-[5-[(1R)-2-amino-1-fluoroethyl]pyrimidin-2-yl]-3-(5-cyclopropyl-2-methylpyrazol-3-yl)oxybenzonitrile]: the IC50 was less than 10 nM.

For the molecule `Cn1nc([C@H]2CCOC2)cc1Oc1cc(Cl)ccc1-c1ncc([C@@H](F)CN)cn1` [compound 1352, (2R)-2-[2-[4-chloro-2-[2-methyl-5-[(3R)-oxolan-3-yl]pyrazol-3-yl]oxyphenyl]pyrimidin-5-yl]-2-fluoroethanamine], the IC50 is 10 to 1000 nM.

Turning to `Cn1nc(C2CCOCC2)cc1Oc1cc(Cl)ccc1-c1ncc(CCN)cn1` [compound 1390, 2-[2-[4-chloro-2-[2-methyl-5-(oxan-4-yl)pyrazol-3-yl]oxyphenyl]pyrimidin-5-yl]ethanamine], the IC50 is 10 to 1000 nM.

Take `Cc1nc(Oc2cc(C#N)ccc2-c2ncc([C@H](F)CN)cn2)cc(N2CCOCC2)n1` [compound 1403, 4-[5-[(1S)-2-amino-1-fluoroethyl]pyrimidin-2-yl]-3-(2-methyl-6-morpholin-4-ylpyrimidin-4-yl)oxybenzonitrile]: the IC50 was 10 to 1000 nM.

`Cn1cc(-c2cc(Oc3cc(C#N)ccc3-c3ccc(CN)cn3)n(C)n2)cn1` [compound 1309, 4-[5-(aminomethyl)pyridin-2-yl]-3-[2-methyl-5-(1-methylpyrazol-4-yl)pyrazol-3-yl]oxybenzonitrile]: the IC50 is 10 to 1000 nM.

`Cn1nc(-c2ccccn2)cc1Oc1cc(Cl)ccc1-c1ncc([C@@H](O)CN)cn1` [compound 1357, (1R)-2-amino-1-[2-[4-chloro-2-(2-methyl-5-pyridin-2-ylpyrazol-3-yl)oxyphenyl]pyrimidin-5-yl]ethanol]: the IC50 was less than 10 nM.

Regarding `Cn1nc(C2CCOCC2)cc1Oc1cc(Cl)ccc1-c1ncc([C@@H](F)CN)cn1` [compound 1360, (2R)-2-[2-[4-chloro-2-[2-methyl-5-(oxan-4-yl)pyrazol-3-yl]oxyphenyl]pyrimidin-5-yl]-2-fluoroethanamine], the IC50 was less than 10 nM.

With `Cn1nc(-c2ccccn2)cc1Oc1cc(Cl)cc(F)c1-c1ccc(CN)cn1` [compound 1404, [6-[4-chloro-2-fluoro-6-(2-methyl-5-pyridin-2-ylpyrazol-3-yl)oxyphenyl]pyridin-3-yl]methanamine], the IC50 was less than 10 nM.

In the case of `Cc1cc(Oc2cc(C#N)ccc2-c2ncc(C(F)(F)CN)cn2)cc(N2CCOCC2)n1` [compound 1319, 4-[5-(2-amino-1,1-difluoroethyl)pyrimidin-2-yl]-3-(2-methyl-6-morpholin-4-ylpyridin-4-yl)oxybenzonitrile], the IC50 was 10 to 1000 nM.

Regarding `Cn1nc(-c2ccccn2)cc1Oc1cc(C#N)ccc1-c1ccc(C(F)(F)CN)cn1` [compound 1312, 4-[5-(2-amino-1,1-difluoroethyl)pyridin-2-yl]-3-(2-methyl-5-pyridin-2-ylpyrazol-3-yl)oxybenzonitrile], the IC50 was less than 10 nM.

As to `Cn1nc(-c2ccccn2)cc1Oc1cc(F)ccc1-c1ncc([C@@H](F)CN)cn1` [compound 1342, (2R)-2-fluoro-2-[2-[4-fluoro-2-(2-methyl-5-pyridin-2-ylpyrazol-3-yl)oxyphenyl]pyrimidin-5-yl]ethanamine], the IC50 was 10 to 1000 nM.

For `Cc1cc(Oc2cc(Cl)cnc2-c2ccc([C@@H](F)CN)cn2)cc(N2CCOCC2)n1` [compound 1397, (2R)-2-[6-[5-chloro-3-(2-methyl-6-morpholin-4-ylpyridin-4 yl)oxypyridin-2-yl]pyridin-3-yl]-2-fluoroethanamine], the IC50 is 10 to 1000 nM.

Regarding `Cn1nc(-c2ccccn2)cc1Oc1cc(Cl)ccc1-c1ccc([C@@H](N)CO)cn1` [compound 1363, (2R)-2-amino-2-[6-[4-chloro-2-(2-methyl-5-pyridin-2-ylpyrazol-3-yl)oxyphenyl]pyridin-3-yl]ethanol], the IC50 is greater than 1000 nM.
